Measurements as given in US20200222347A1, “ANTIMICROBIALS AND METHODS OF USE THEREOF” (priority 2013, published 2020).
Entries after “also recorded” stand apart in the source; their conditions may differ.

Columns and labels:
[1] = system: S. aureus 6538; assay: Kirby-Bauer disc diffusion antimicrobial susceptibility; type: cell-based; details: 100 mM, carrier water; 18-24 hours for aerobes
[2] = system: Propionibacterium acnes (1100; ATCC 6919); assay: BALB/c mice intradermal infection, topical treatment, Example 9; type: in vivo; details: for effect on P. acnes CFU burden in mouse skin: 96 hours
Description: BALB/c mice were infected with Propionibacterium acnes via intradermal injection and treated topically with varying concentrations of a novel test compound, PCA, at 2, 24, 48 and 72 hours following challenge. Efficacy was evaluated by CFU analysis from skin samples harvested at 96 hours post challenge.
Female BALB/c mice, ordered from Harlan and weighing 17-19 g, were acclimated to housing conditions and handled in accordance with AUP number TP-18-13. The animals were acclimated for 4 days prior to bacterial challenge. Only animals deemed healthy and fully immunocompetent were included in this study. Cages were prepared with 2 mice per cage.
On Day −1, each mouse was anesthetized in an Isoflurane induction chamber and the lesion site was cleared of hair. An area of approximately 2.0 cm×2.0 cm of skin on the dorsal area of each mouse was cleared through use of the depilatory agent Nair®.
Cultures were grown for 96 hrs at 37° C. in an anaerobic atmosphere on TS agar plates supplemented with 5% sheep blood cells. The culture was aseptically swabbed and transferred to tubes of TS broth and allowed to grow for 72 hours. The cultures were diluted to provide challenge inoculum of approximately 6.0-7.0 log 10 CFU per 50 μL in PBS. On Day 0 each mouse was anesthetized using Isoflurane. Each animal on the study was administered 50 μL of the bacterial suspension via intradermal injection in the dorsal area that was previously denuded of hair. The final CFU count from the challenge suspension determined that 6.0 log 10 CFU per mouse were delivered.
The test treatment, PCA, was provided by the study Sponsor and formulated using sterile water. Treatments were administered topically in a dose volume of 0.1 mL. Treatments were given at 2, 24, 48 and 72 hours post challenge at 60 mg/kg (78 mM; Group 3), 30 mg/kg (39 mM; Group 4) or 15 mg/kg (19.5 mM; Group 5).
At 96 hours following challenge, mice were humanely euthanized and skin was aseptically removed from the infection site. Skin samples were placed in homogenation vials with 2.0 mL PBS, weighed and homogenized using a mini-bead beater. Homogenate was serially diluted and plated anaerobically on TSA agar plates for enumeration of colony forming units per gram of skin tissue.

[3] = system: E. coli, ATTC 8739 and ATCC 43895; assay: Kirby-Bauer disc diffusion antimicrobial susceptibility; type: cell-based; details: 100 mM, carrier water; 18-24 hours for aerobes
[4] = system: Legionella 43662; type: cell-based

O=C(O)c1ccc(O)c(O)c1 [PCA, Protocatechuic acid]
effectiveness against S. aureus 6538 [1]: effective
effect on P. acnes CFU burden in mouse skin ([2]; 15 mg/kg (19.5 mM) topical): no such effect; also recorded: statistically non-different
effect on P. acnes CFU burden in mouse skin ([2]; 30 mg/kg (39 mM) topical): no such effect; also recorded: statistically non-different
reduction of CFU burden in skin vs untreated ([2]; 60 mg/kg (78 mM) topical at 2, 24, 48 and 72 hours, harvest 96 hours): approximately 1 log 10
effect on P. acnes CFU burden in mouse skin ([2]; 60 mg/kg (78 mM) topical, P=0.0285 vs untreated): bacteriostatic effect; also recorded: significant reduction
effectiveness against E. coli [3]: effective
effectiveness against Legionella 43662 [4]: effective
